# Patent US8598122B2, “Antagonistic peptides for frizzled-1 and frizzled-2” (Universiteit Maastricht, priority 2009, dated 2013)
# “Also recorded” adds a separate entry of the source. Where a SMILES comes first, the peptide text is derived from it.
# Key:
# [1] = test system: 129S6 mice; experiment: Infarct rupture in 129S6 mice; type: in vivo; details: infarct rupture frequency ˜60%, unpublished observations
# From the text: Because of the lack of pharmacological tools to intervene in Wnt/Fzd signaling in vivo, only genetic interventions have been reported so far in studies on the role of Wnt signaling in infarct healing. Barandon et al. were the first to show a beneficial effect of overexpression on infarct healing of FrzA, a bovine homologue of soluble frizzled-related protein-1 (sFRP1). They observed a decreased infarct size with elevated numbers of myofibroblasts and increased angiogenesis in the infarcted FrzA transgenic mice (Barandon et al., 2003), which could be confirmed in the present study using an Fzd-1 and -2 antagonist. […] In the mean time, the beneficial effects of sFRP overexpression on infarct healing have been confirmed by Kobayashi et al. (Kobayashi et al., 2009). Taken together, these reports support the observations of the present study and point to a beneficial effect of inhibiting Wnt/Fzd signaling on the wound-healing process after MI.
# [2] = Pharmacokinetics in rats; type: in vivo
# [3] = test system: C-FIT cells; experiment: Differentiation assay (α-SMA) with C-FIT cells; type: cell-based, rat
# From the text: For this assay, we used the same C-FIT cells as for the migration assay to study a second component of wound healing, namely, differentiation of fibroblasts into myofibroblasts. When wound healing starts, cells called fibroblasts migrate into the scar. These cells have no contractile properties; however, they can differentiate into myofibroblasts, which can actively contract. To study which signals influence the transition from fibroblast into myofibroblasts, we treated the C-FIT cells and harvested them for mRNA isolation. Next, we tested them for the presence of specific markers for myofibroblasts by reverse transcription of the mRNA and subsequent quantitative PCR analysis, which are absent in fibroblasts. One of those markers is α-smooth muscle actin, which makes the cells contract.
# (§1) RNA was isolated using the Trizol method (Invitrogen). For the RT-PCR, the RNA was transcribed to cDNA with iscript™ cDNA synthesis kit (Bio-Rad, Hercules Calif., USA), Syber green (Eurogentec, Ghent, Belgium) was used for the detection of cDNA levels and cyclophilin served as the house keeping gene. In Supplementary methods panel 5, the primer sequences are shown.
# [4] = target: T1, frizzled-2 (rFzd-2) (Rattus norvegicus, UniProt Q08464); experiment: Activity assay: Wnt3a-induced luciferase (superTOPflash) in HEK cells transfected with frizzled-2; type: cell-based
# T1 construct: expressed in transfected cells; host or cells: HEK293 superTOPflash (human embryonic kidney), transient, pcDNA3.1/hygro
# Procedure: Human embryonic kidney (HEK) cells were used for screening. These cells have a luciferase construct stably transfected into the genome (see FIG. 2A), such that when the frizzled receptor is activated and β-catenin is increased, the luciferase is activated by transcription and light can be measured.
# The peptides were tested by transfecting the frizzled-1 or the frizzled-2 receptor and addition of UM206(S-S) to the cell culture. For testing antagonistic activity, UM206 was added and the natural ligand Wnt3a was added, which is a natural stimulus for the canonical pathway.
# Day 2: Transfection 12-well plates • heat Fugene6 and DNA 15 minutes at RT • 2 ml serum-free medium in tube • add 3μl fugene • add 2 μg DNA • incubate 30 minutes at RT • wash with PBS • add 50 μtransfectiemix • add 1 ml antibiotica-free medium
# Day 3: Add conditioned medium or UM206
# Day 4: Luciferase activity measurements • remove medium • wash with PBS • add 500 μl ⅕ lysisbuffer • shake for 60 minutes • centrifuge in tube • 20 μl lysaat and 50 μl luciferase in new tube for measurement • vortex • measure
# To determine the inhibitory constant of UM206-8, HEK293-superTOPflash cells were transfected with either rFzd-1 or -2 and incubated with Wnt3a (10^−9M) in the presence of increasing concentrations of either of the peptides (FIG. 15). For UM206, a biphasic inhibition curve was observed that was best fitted with a two-binding-state model.
# The cell lines were cultured in 75 cm^2 culture flasks (Corning, Schiphol, the Netherlands) in Dulbeco's modified essential medium with L-glutamine (2 mM), 10% fetal calf serum (Invitrogen, Merelbeke, Belgium), and 1% gentamycin (Sigma-Aldrich, Zwijndrecht, The Netherlands). Before starting the experiment, the cell lines were treated with plasmocin 25 μg/ml (Invivogen, Toulose, France) and tested with a mycoalert mycoplasma detection kit (Lonza, Rockland Me., USA). Cells were transiently transfected with Fugene6 (Roche, Indianapolis Ind., USA) with plasmid DNA, pcDNA3.1/hygro (Invitrogen) with frizzled-1/2/4 or Wnts 3a-5a or with pcDNA3.0 (Invitrogen) containing the β-catenin or frizzled-5 sequence. After transfection, the cells were cultured for 24 hours in conditioned medium, collected from the cultured L-cells, L-cells with Wnt3a or 5a (Invitrogen). At the same moment the antagonist was added.
# [5] = test system: C-FIT cells (cardiac fibroblasts immortalized with telomerase); experiment: Migration (wound/scratch) assay with C-FIT cells overexpressing Fzd-1 or -2; type: cell-based, rat
# Procedure: For this assay, we used rat cardiac fibroblasts, which were immortalized with telomerase, the C-FIT cell line. This cell line was characterized previously and resembles features of primary cardiac fibroblasts. C-FIT cells were plated, treated when they were 70% confluent and a wound was made with a pipette tip at the moment of 100% confluence.
# This assay was first tested with the natural ligand Wnt3a, in combination with frizzled-1 and -2 overexpression. […] Next step was to see whether the antagonist could counteract this. (See FIG. 4.)
# Day 1: • Plate cells in 12-well plates
# Day 2: • Transfection (see protocol)
# Day 3: • Addition of conditioned medium
# Day 4: • Make a scratch. This is time point zero.
# Making pictures every six hours and analyzing the scratch width.
# Cells were plated on day 0, and cultured until 70% confluence before transfection or treatment. Migration assays started 48 hours after transfection and/or treatment. The time point where the scratch was made, is indicated as 0 hours. Scratch width was measured at this time point, and also after 6, 12, and 24 hours.
# [6] = test system: small intestine; experiment: qPCR of Wnt target genes in small intestine after long-term UM206 administration; type: in vivo, mice; design: key to Rel. exp. Col I: expression normalized to cyclophilin housekeeping gene; key to Rel. exp. Inos / Rel. exp. CD 44 / Rel. exp. Axin 2 / Rel. exp. Itm 2A / Rel. exp. Mmp 2 / Rel. exp. Ascl 2 / Rel. exp. Dvl 2: relative expression, cyclophilin as housekeeping gene
# From the text: This was confirmed by histological analysis of the infarct area.
# as §1
# [7] = target: T2, human Fzd-2 (Homo sapiens, UniProt Q14332); experiment: Antagonism of Wnt3a activation of human Fzd-2 (data not shown); type: cell-based
# T2 construct: expressed in transfected cells
# From the text: In FIG. 3, Panel E, the efficacy of UM206 to block the Wnt3a-induced activation of luciferase activity in HEK293 superTOPflash cells transfected with different Fzds is shown.
# T1 sequence (Q08464 29-570): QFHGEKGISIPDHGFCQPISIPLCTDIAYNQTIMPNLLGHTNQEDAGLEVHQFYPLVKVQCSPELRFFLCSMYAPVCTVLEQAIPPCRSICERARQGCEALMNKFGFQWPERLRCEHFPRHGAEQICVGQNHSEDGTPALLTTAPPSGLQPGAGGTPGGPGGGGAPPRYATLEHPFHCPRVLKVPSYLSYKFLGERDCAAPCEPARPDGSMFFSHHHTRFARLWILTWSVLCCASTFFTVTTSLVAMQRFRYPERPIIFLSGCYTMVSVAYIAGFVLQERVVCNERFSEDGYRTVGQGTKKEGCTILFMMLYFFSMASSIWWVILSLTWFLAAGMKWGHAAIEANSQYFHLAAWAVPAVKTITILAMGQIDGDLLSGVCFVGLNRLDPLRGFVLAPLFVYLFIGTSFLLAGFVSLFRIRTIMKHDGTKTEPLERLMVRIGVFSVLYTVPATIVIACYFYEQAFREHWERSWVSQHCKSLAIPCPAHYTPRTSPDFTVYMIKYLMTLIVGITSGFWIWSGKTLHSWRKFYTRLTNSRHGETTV
# T2 sequence (Q14332 24-565): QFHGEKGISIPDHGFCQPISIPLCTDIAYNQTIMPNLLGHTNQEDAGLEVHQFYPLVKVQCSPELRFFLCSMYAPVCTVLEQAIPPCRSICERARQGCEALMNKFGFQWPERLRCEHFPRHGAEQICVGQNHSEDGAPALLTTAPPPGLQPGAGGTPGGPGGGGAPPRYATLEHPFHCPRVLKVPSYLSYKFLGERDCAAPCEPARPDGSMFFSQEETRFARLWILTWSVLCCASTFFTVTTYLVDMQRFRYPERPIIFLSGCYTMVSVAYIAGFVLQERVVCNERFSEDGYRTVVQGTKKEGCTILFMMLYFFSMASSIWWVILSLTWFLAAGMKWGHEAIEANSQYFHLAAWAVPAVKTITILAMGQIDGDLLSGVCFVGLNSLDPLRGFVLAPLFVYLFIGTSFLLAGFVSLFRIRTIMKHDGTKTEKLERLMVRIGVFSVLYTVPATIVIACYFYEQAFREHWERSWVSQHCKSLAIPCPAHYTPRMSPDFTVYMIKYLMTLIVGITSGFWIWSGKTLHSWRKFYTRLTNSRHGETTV
compound,measurement,setting,value
"CSCC[C@H](NC(=O)CNC(=O)[C@H](CCC(=O)O)NC(=O)[C@H](CO)NC(=O)[C@@H](NC(=O)[C@H](CCCCN)NC(=O)[C@H](CC(N)=O)NC(=O)[C@H](CS)NC(C)=O)[C@@H](C)O)C(=O)N[C@@H](CC(=O)O)C(=O)NCC(=O)N[C@@H](CS)C(=O)N[C@@H](CCC(=O)O)C(=O)N[C@@H](CC(C)C)C(N)=O [UM206, Ac-Cys-Asn-Lys-Thr-Ser-Glu-Gly-Met-Asp-Gly-Cys-Glu-Leu-NH2] (Ac-CNKTSEGMDGCEL-NH2)",number of ruptured infarcts,[1],did not reduce the number of ruptured infarcts
same,half-life,[2],around 90 minutes
same,Effect on Wnt3a/5a-induced differentiation (α-SMA levels),[3],completely blocks this differentiation
same,Higher affinity for rFzd-2 than for rFzd-1,[4],~100 fold
same,Selectivity frizzled-2 over frizzled-1,[4],slightly more selective for frizzled-2 over frizzled-1
same,"Blocking of Wnt3a-induced luciferase activity, frizzled-2",[4]; increasing amounts of antagonist,completely and concentration-dependently blocked
same,"Blocking of Wnt3a-induced luciferase activity, rFzd-2",[4]; peptide 1.10^−8 M,blocked almost completely; also recorded: abolished the induction of luciferase activity almost completely
same,Effect of the antagonist on its own on luciferase activity,[4]; without Wnt3a,no effect
same,effect of UM206 alone on cell migration,[5],no effect
same,Counteraction of Wnt3a/Wnt5a-induced attenuation of migration,"[5]; UM206 1.10^−8 M, Fzd-1 or -2 overexpression",migration was reset to the migration speed of the control; also recorded: blocked completely; also recorded: block this effect completely
same,influence on the expression patterns in the small intestine,[6]; UM206 for five weeks,These data indicate that UM206 had no influence on the expression patterns in the small intestine.
same,Rel. exp. Ascl 2,[6]; small intestine,1.42
same,Rel. exp. Axin 2,[6]; small intestine,1.05
same,Rel. exp. CD 44,[6]; small intestine,1.22
same,Rel. exp. Col I,[6]; small intestine,1.32
same,Rel. exp. Dvl 2,[6]; small intestine,1.13
same,Rel. exp. Inos,[6]; small intestine,1.18
same,Rel. exp. Itm 2A,[6]; small intestine,0.97
same,Rel. exp. Mmp 2,[6]; small intestine,1.32
same,Antagonizing activation of human Fzd-2 by Wnt3a,[7],fully effective
